Laboratory results: patent EP1430933A2, “Cosmetic and pharmaceutical compositions comprising steroid sulfatase inhibitors and their use for the reduction of hair loss” (Henkel Kommanditgesellschaft auf Aktien, priority 2002, dated 2004)

Molecular target: T1, Arylsulfatase (EC 3.1.6.1) (Klebsiella aerogenes, UniProt P20713)
T1 construct: purchased Sigma S-1629
T1 sequence (P20713 21-464): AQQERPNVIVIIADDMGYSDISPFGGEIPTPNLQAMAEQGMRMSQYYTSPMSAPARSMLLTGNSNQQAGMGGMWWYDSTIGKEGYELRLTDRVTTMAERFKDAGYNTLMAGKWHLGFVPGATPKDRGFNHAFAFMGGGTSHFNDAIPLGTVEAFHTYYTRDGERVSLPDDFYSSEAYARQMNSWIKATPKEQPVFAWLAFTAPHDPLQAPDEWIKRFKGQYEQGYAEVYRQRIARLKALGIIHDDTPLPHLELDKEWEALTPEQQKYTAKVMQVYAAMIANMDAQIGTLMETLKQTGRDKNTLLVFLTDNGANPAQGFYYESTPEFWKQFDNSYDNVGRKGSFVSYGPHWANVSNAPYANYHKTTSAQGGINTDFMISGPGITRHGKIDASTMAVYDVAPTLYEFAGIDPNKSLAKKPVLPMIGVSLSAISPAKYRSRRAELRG
Assay: Arylsulfatase enzyme test (Sigma sulfatase enzyme assay S-1629; p-nitrophenol formation from pNPS, 420 nm)
Type: biochemical
Conditions: pH 7,1, 37°C, 8 mM pNPS
Description: Überprüfung der inhibitorischen Wirkung der Steroidsulfatase-Inhibitoren (in vitro)
Da die Sulfatase des Haarfollikels nicht zur Verfügung stand, diente eine handelsübliche Arylsulfatase (EC 3.1.6.1) aus Aerobacter aerogenes als Modellenzym, um die Hemmwirkung der erfindungsgemäß verwendeten Inhibitoren zu testen. Die Tests wurden mit dem Sulfatase-Enzymassay Product No. S-1629 von Sigma gemäß den Angaben im Sigma Quality Control Test Procedure-Datenblatt durchgeführt. Als Referenz-Inhibitoren dienten Ascorbinsäure und ATP.
Zur Auswertung wurde die Arylsulfatase-katalysierte Bildung von p-Nitrophenol aus dem Substrat p-Nitrophenylsulfat (pNPS) spektrophotometrisch (λ = 420 nm) verfolgt. Die Reaktionslösungen von 1000 µl, die auf eine Reaktionstemperatur von 37°C temperiert wurden, enthielten 187 mM Tris/HCl (pH 7,1), 8 mM pNPS und eine Startkonzentration von 0,05 U/ml Arylsulfatase. Die Einheit U der Enzymaktivität wurde so definiert, dass 1 U Sulfatase 1,0 µmol pNPS pro Minute bei pH 7,1 und 37°C hydrolysiert. Die Testdurchführung ist auch offenbart bei H.R. Fowler und D. H. Rammler, Biochemistry 3, 230, 1964. Die Reaktion wurde durch Zugabe des Enzyms gestartet und der Anstieg der Absorption bei λ = 420 nm über 5 Minuten verfolgt. Der lineare Anstieg der Absorption (A) pro Zeiteinheit (t) ist hierbei ein Maß für die Aktivität des Enzyms (ΔA/Δt). Die Aktivität des Enzyms in Abwesenheit eines Inhibitors, (ΔA1/Δt1 ), wurde als Referenz gleich 100% gesetzt. Unter analogen Bedingungen wurden die Aktivitäten in Gegenwart eines Inhibitors (ΔA2/Δt2) bestimmt. Die Hemmwirkung des Inhibitors bzw. die Minderung der Enzymaktivität wurde dann berechnet gemäß der Formel 100% - (ΔA2/Δt2 )/( ΔA1/Δt1 )%.

- Hemmwirkung (ACH-Lösung Locron® L 0,01 % (v/v)): Keine Hemmung meßbar
- Hemmwirkung (ACH-Lösung Locron® L 0,1 % (v/v)): 6%
- Hemmwirkung (ACH-Lösung Locron® L 0,5 % (v/v)): 27%
- Hemmwirkung (ACH-Lösung Locron® L 1 % (v/v)): 52%
Substance: Aluminiumchlorohydrat [Aluminiumchlorohydrat (ACH)]
